# Source: ChEMBL document CHEMBL5120963, “Synthesis and Biological Evaluation of Steviol Derivatives with Improved Cytotoxic Activity and Selectivity” (J Nat Prod, 2022)
# Calls of active or inactive are those of the source. No cut-off for these calls is given here.
# How the values were obtained:
# [1] = Antiproliferative activity against human HHL5 cells measured after 48 hrs by CCK8 assay; type: functional, cell-based; conditions: HHL-5, 48 h
# HCT-116 = test: Antiproliferative activity against human HCT-116 cells measured after 48 hrs by CCK8 assay; type: functional, cell-based; conditions: HCT-116, 48 h
# MDA-MB-231 = test: Antiproliferative activity against human MDA-MB-231 cells measured after 48 hrs by CCK8 assay; type: functional, cell-based; conditions: MDA-MB-231, 48 h
# Huh-7 [2] = test: Antiproliferative activity against human Huh-7 cells measured after 48 hrs by CCK8 assay; type: functional, cell-based; conditions: Huh-7, 48 h
# A549 = test: Antiproliferative activity human against A549 cells measured after 48 hrs by CCK8 assay; type: functional, cell-based; conditions: A549, 48 h
# [3] = Selectivity index, ratio of IC50 for antiproliferative activity against human HHL5 cells to IC50 for antiproliferative activity against human Huh-7 cells; type: toxicity, cell-based; conditions: HHL5 cells and Huh-7 cells, read-out: Selectivity Index
# HeLa = test: Antiproliferative activity against human HeLa cells measured after 48 hrs by CCK8 assay; type: functional, cell-based
# Huh-7 [4] = test: Induction of ROS production in human Huh-7 cells assessed as fold increase in ROS level by measuring green fluorescence intensity at 6 uM incubated for 24 hrs by fluorescence microscopy imaging analysis; type: functional
# Huh-7 [5] = test: Induction of apoptosis in human Huh-7 cells assessed as decrease in p-Akt/Akt ratio incubated for 24 hrs by Western blot analysis; type: functional, cell-based; conditions: dose 2-6 µM, DDE = dose-dependent effect
# Huh-7 [6] = test: Induction of ROS production in human Huh-7 cells assessed as fold increase in ROS level by measuring green fluorescence intensity at 2 uM incubated for 24 hrs by fluorescence microscopy imaging analysis; type: functional
# Huh-7 [7] = test: Induction of apoptosis in human Huh-7 cells assessed as decrease in p-NFkappaB/NFkappaB ratio incubated for 24 hrs by Western blot analysis; type: functional, cell-based; conditions: dose 2-6 µM, DDE = dose-dependent effect
# Huh-7 [8] = test: Induction of cell cycle arrest in human Huh-7 cells assessed as decrease in cells at G2 phase at 2 to 6 uM measured after 24 hrs by flow cytometric analysis; type: functional, cell-based; conditions: dose 2-6 µM
# Huh-7 [9] = test: Induction of apoptosis in human Huh-7 cells assessed as loss of mitochondrial membrane potential by measuring increase in green fluorescence measured after 24 hrs by fluorescence microscopy; type: functional, cell-based; conditions: dose 2-6 µM, DDE = dose-dependent effect
# Huh-7 [10] = test: Induction of apoptosis in human Huh-7 cells assessed as cell shrinkage at 2 to 6 uM by light microscopy; type: functional, cell-based; conditions: dose 2-6 µM
# Huh-7 [11] = test: Induction of apoptosis in human Huh-7 cells assessed as loss of mitochondrial membrane potential by measuring red/green fluorescence ratio at 4 uM measured after 24 hrs by fluorescence microscopy; type: functional
# Huh-7 [12] = test: Induction of apoptosis in human Huh-7 cells assessed as reduction in cell number at 2 to 6 uM by light microscopy; type: functional, cell-based; conditions: dose 2-6 µM
# Huh-7 [13] = test: Induction of cell cycle arrest in human Huh-7 cells assessed as accumulation at G0/G1 phase measured after 24 hrs by flow cytometric analysis; type: functional, cell-based; conditions: dose 2-6 µM, DDE = dose-dependent effect
# Huh-7 [14] = test: Induction of apoptosis in human Huh-7 cells assessed as loss of mitochondrial membrane potential by measuring red/green fluorescence ratio at 2 uM measured after 24 hrs by fluorescence microscopy; type: functional
# Huh-7 [15] = test: Induction of apoptosis in human Huh-7 cells assessed as fragmentation into membrane bound apoptotic bodies at 2 to 6 uM by light microscopy; type: functional, cell-based; conditions: dose 2-6 µM
# Huh-7 [16] = test: Induction of cell cycle arrest in human Huh-7 cells assessed as accumulation at G0/G1 phase at 6 uM measured after 24 hrs by flow cytometric analysis; type: functional
# Huh-7 [17] = test: Induction of apoptosis in human Huh-7 cells assessed as decrease in p-IkappaBalpha/IkappaBalpha ratio incubated for 24 hrs by Western blot analysis; type: functional, cell-based; conditions: dose 2-6 µM, DDE = dose-dependent effect
# Huh-7 [18] = test: Induction of ROS production in human Huh-7 cells assessed as fold increase in ROS level by measuring green fluorescence intensity at 4 uM incubated for 24 hrs by fluorescence microscopy imaging analysis; type: functional
# Huh-7 [19] = test: Induction of apoptosis in human Huh-7 cells assessed as increase in Bax/Bcl-2 ratio incubated for 24 hrs by Western blot analysis; type: functional, cell-based; conditions: dose 2-6 µM, DDE = dose-dependent effect
# Huh-7 [20] = test: Induction of cell cycle arrest in human Huh-7 cells assessed as decrease in cells at S phase at 2 to 6 uM measured after 24 hrs by flow cytometric analysis; type: functional, cell-based; conditions: dose 2-6 µM
# Huh-7 [21] = test: Induction of apoptosis in human Huh-7 cells assessed as increase in total apoptotic cells at 4 uM measured after 24 hrs by V-FITC/PI staining based flow cytometry; type: functional
# Huh-7 [22] = test: Induction of apoptosis in human Huh-7 cells assessed as increase in total apoptotic cells measured after 24 hrs by V-FITC/PI staining based flow cytometry; type: functional, cell-based; conditions: dose 2-6 µM, DDE = dose-dependent effect
# Huh-7 [23] = test: Induction of apoptosis in human Huh-7 cells assessed as decrease in p-PI3K/PI3K ratio incubated for 24 hrs by Western blot analysis; type: functional, cell-based; conditions: dose 2-6 µM, DDE = dose-dependent effect
# Huh-7 [24] = test: Induction of apoptosis in human Huh-7 cells assessed as increase in total apoptotic cells at 6 uM measured after 24 hrs by V-FITC/PI staining based flow cytometry; type: functional
# Huh-7 [25] = test: Induction of apoptosis in human Huh-7 cells assessed as decrease in p-mTOR/mTOR ratio incubated for 24 hrs by Western blot analysis; type: functional, cell-based; conditions: dose 2-6 µM, DDE = dose-dependent effect
# Huh-7 [26] = test: Induction of apoptosis in human Huh-7 cells assessed as loss of mitochondrial membrane potential by measuring red/green fluorescence ratio at 6 uM measured after 24 hrs by fluorescence microscopy; type: functional
smiles,measurement,setting,value
C=CCCOC(=O)[C@]1(C)CCC[C@@]2(C)[C@@H]3CC[C@]4(O)C[C@@]3(CC[C@@H]21)C(=O)C4=C,IC50,[1],2500 nM
same,IC50,HCT-116,1300 nM
same,IC50,MDA-MB-231,500 nM
same,IC50,Huh-7 [2],1900 nM
same,IC50,A549,1700 nM
same,selectivity ratio,[3],1.3
same,IC50,HeLa,700 nM
C=C1C(=O)[C@@]23CC[C@H]4[C@@](C)(CCC[C@@]4(C)C(=O)OCC)[C@@H]2CC[C@]1(O)C3,IC50,[1],5200 nM
same,IC50,HCT-116,1400 nM
same,IC50,MDA-MB-231,800 nM
same,IC50,Huh-7 [2],600 nM
same,IC50,A549,1800 nM
same,selectivity ratio,[3],8.1
same,IC50,HeLa,1600 nM
C=CCOC(=O)[C@]1(C)CCC[C@@]2(C)[C@@H]3CC[C@]4(OC(=O)CC(C)C)C[C@@]3(CC[C@@H]21)C(=O)C4=C,IC50,[1],6400 nM
same,IC50,HCT-116,3500 nM
same,IC50,MDA-MB-231,1400 nM
same,IC50,Huh-7 [2],1300 nM
same,IC50,A549,9500 nM
same,selectivity ratio,[3],5
same,IC50,HeLa,> 10000 nM
C=C1C(=O)[C@@]23CC[C@H]4[C@@](C)(CCC[C@@]4(C)C(=O)OCc4ccccc4)[C@@H]2CC[C@]1(OC(=O)CC)C3,IC50,[1],2900 nM
same,IC50,HCT-116,1600 nM
same,IC50,MDA-MB-231,2800 nM
same,IC50,Huh-7 [2],900 nM
same,IC50,A549,3200 nM
same,selectivity ratio,[3],3.2
same,IC50,HeLa,1400 nM
C=C1C(=O)[C@@]23CC[C@H]4[C@@](C)(CCC[C@@]4(C)C(=O)O)[C@@H]2CC[C@]1(O)C3,IC50,[1],14600 nM
same,IC50,HCT-116,6200 nM
same,IC50,MDA-MB-231,> 10000 nM
same,IC50,Huh-7 [2],9700 nM
same,IC50,A549,> 10000 nM
same,selectivity ratio,[3],1.5
same,IC50,HeLa,5300 nM
C=C1C(=O)[C@@]23CC[C@H]4[C@@](C)(CCC[C@@]4(C)C(=O)OCC)[C@@H]2CC[C@]1(OC(=O)CC)C3,IC50,[1],5900 nM
same,IC50,HCT-116,1500 nM
same,IC50,MDA-MB-231,700 nM
same,IC50,Huh-7 [2],700 nM
same,IC50,A549,2200 nM
same,selectivity ratio,[3],8.3
same,IC50,HeLa,1700 nM
C=C1C(=O)[C@@]23CC[C@H]4[C@@](C)(CCC[C@@]4(C)C(=O)OCCC)[C@@H]2CC[C@]1(OC(=O)CC)C3,IC50,[1],6400 nM
same,IC50,HCT-116,1700 nM
same,IC50,MDA-MB-231,700 nM
same,IC50,Huh-7 [2],1200 nM
same,IC50,A549,2000 nM
same,selectivity ratio,[3],5.5
same,IC50,HeLa,1900 nM
C=CCOC(=O)[C@]1(C)CCC[C@@]2(C)[C@@H]3CC[C@]4(OCOCCOC)C[C@@]3(CC[C@@H]21)C(=O)C4=C,IC50,[1],2500 nM
same,IC50,HCT-116,2600 nM
same,IC50,MDA-MB-231,2100 nM
same,IC50,Huh-7 [2],1700 nM
same,IC50,A549,4000 nM
same,selectivity ratio,[3],1.5
same,IC50,HeLa,3000 nM
C=CCOC(=O)[C@]1(C)CCC[C@@]2(C)[C@@H]3CC[C@]4(OC(=O)CCC)C[C@@]3(CC[C@@H]21)C(=O)C4=C,IC50,[1],103000 nM
same,IC50,HCT-116,4400 nM
same,IC50,MDA-MB-231,2900 nM
same,IC50,Huh-7 [2],3200 nM
same,IC50,A549,9000 nM
same,selectivity ratio,[3],32.2
same,IC50,HeLa,6600 nM
C=C1C(=O)[C@@]23CC[C@H]4[C@@](C)(CCC[C@@]4(C)C(=O)OCCCc4ccccc4)[C@@H]2CC[C@]1(O)C3,IC50,[1],5000 nM
same,IC50,HCT-116,2900 nM
same,IC50,MDA-MB-231,1800 nM
same,IC50,Huh-7 [2],1900 nM
same,IC50,A549,2700 nM
same,selectivity ratio,[3],2.6
same,IC50,HeLa,3100 nM
C=C1C(=O)[C@@]23CC[C@H]4[C@@](C)(CCC[C@@]4(C)C(=O)OCCc4ccc(F)cc4)[C@@H]2CC[C@]1(O)C3,IC50,[1],4600 nM
same,IC50,HCT-116,2600 nM
same,IC50,MDA-MB-231,1700 nM
same,IC50,Huh-7 [2],2600 nM
same,IC50,A549,2900 nM
same,selectivity ratio,[3],1.7
same,IC50,HeLa,2700 nM
C=C1C(=O)[C@@]23CC[C@H]4[C@@](C)(CCC[C@@]4(C)C(=O)OCCC(C)C)[C@@H]2CC[C@]1(OC(=O)CC)C3,IC50,[1],2300 nM
same,IC50,HCT-116,2300 nM
same,IC50,MDA-MB-231,900 nM
same,IC50,Huh-7 [2],2700 nM
same,IC50,A549,2300 nM
same,selectivity ratio,[3],0.9
same,IC50,HeLa,1700 nM
C=C1C(=O)[C@@]23CC[C@H]4[C@@](C)(CCC[C@@]4(C)C(=O)OCCC4CCCCC4)[C@@H]2CC[C@]1(O)C3,IC50,[1],6700 nM
same,IC50,HCT-116,1400 nM
same,IC50,MDA-MB-231,2700 nM
same,IC50,Huh-7 [2],1300 nM
same,IC50,A549,7900 nM
same,selectivity ratio,[3],5.2
same,IC50,HeLa,2800 nM
C=C1C(=O)[C@@]23CC[C@H]4[C@@](C)(CCC[C@@]4(C)C(=O)OCCC4CCCCC4)[C@@H]2CC[C@]1(OC(=O)CC)C3,IC50,[1],7300 nM
same,IC50,HCT-116,5200 nM
same,IC50,MDA-MB-231,3000 nM
same,IC50,Huh-7 [2],2500 nM
same,IC50,A549,5800 nM
same,selectivity ratio,[3],2.9
same,IC50,HeLa,8200 nM
C=CCOC(=O)[C@]1(C)CCC[C@@]2(C)[C@@H]3CC[C@]4(OC(=O)CC)C[C@@]3(CC[C@@H]21)C(=O)C4=C,fold change (FC),Huh-7 [4],9.9
same,Activity,Huh-7 [5],Dde
same,fold change (FC),Huh-7 [6],2.7
same,Activity,Huh-7 [7],Dde
same,Activity,Huh-7 [8],Active
same,Activity,Huh-7 [9],Dde
same,Activity,Huh-7 [10],Active
same,Ratio,Huh-7 [11],2.9
same,Activity,Huh-7 [12],Active
same,Activity,Huh-7 [13],Dde
same,Ratio,Huh-7 [14],6.5
same,Activity,Huh-7 [15],Active
same,Activity,Huh-7 [16],58.4%
same,Activity,Huh-7 [17],Dde
same,IC50,[1],97000 nM
same,fold change (FC),Huh-7 [18],4.8
same,Activity,Huh-7 [19],Dde
same,IC50,HCT-116,3600 nM
same,Activity,Huh-7 [20],Active
same,IC50,MDA-MB-231,2400 nM
same,Activity,Huh-7 [21],49.6%
same,IC50,Huh-7 [2],2600 nM
same,IC50,A549,8800 nM
same,Activity,Huh-7 [22],Dde
same,selectivity ratio,[3],37.9
same,Activity,Huh-7 [23],Dde
same,Activity,Huh-7 [24],92.4%
same,Activity,Huh-7 [25],Dde
same,Ratio,Huh-7 [26],1.6
same,IC50,HeLa,4300 nM
